{
  "source": "patent US10526327B2",
  "about": "“Histone demethylase inhibitors” (CELGENE QUANTICEL RESEARCH, INC., priority 2013, dated 2020)",
  "molecular_target": "T1, JMJD2C (Homo sapiens, UniProt Q9H3R0)",
  "T1 construct": "purchased BPS Bioscience 50105",
  "T1 sequence (Q9H3R0 2-372)": "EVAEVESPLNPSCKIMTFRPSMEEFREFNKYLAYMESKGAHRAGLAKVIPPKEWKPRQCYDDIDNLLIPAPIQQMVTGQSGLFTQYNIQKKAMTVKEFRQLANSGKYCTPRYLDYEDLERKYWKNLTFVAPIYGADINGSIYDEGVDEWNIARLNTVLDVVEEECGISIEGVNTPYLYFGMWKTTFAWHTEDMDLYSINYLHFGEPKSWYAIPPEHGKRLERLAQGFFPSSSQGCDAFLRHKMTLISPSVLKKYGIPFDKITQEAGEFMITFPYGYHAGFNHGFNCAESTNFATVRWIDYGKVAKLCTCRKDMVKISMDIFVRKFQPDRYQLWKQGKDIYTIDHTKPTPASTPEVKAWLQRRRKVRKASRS",
  "experiment": "JMJD2C in vitro enzyme inhibition assay (TR-FRET)",
  "assay_type": "biochemical",
  "in_short": "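Baculovirus-expressed human JMJD2C (AA 2-372) at 0.3 nM demethylated 300 nM biotin-H3K9me3 peptide with 2 μM alpha-ketoglutarate in HEPES pH 7.3 containing ascorbate and Fe(II), 30 min at room temperature. EDTA-stopped product was read by TR-FRET with Eu-anti-H3K9me2 and streptavidin-APC; 665/615 ratios from 11-point dilutions gave IC50.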",
  "note": "pIC50: −log10 of the molar value.",
  "data": [
    {"smiles": "CC(C)Oc1nc(O)c2ccncc2n1", "note": "[Example 1, 2-propan-2-yloxy-3H-pyrido[3,4-d]pyrimidin-4-one]", "values": [
      {"measurement": "pIC50", "result": "6.00 to 7.00"}
    ]},
    {"smiles": "CCOc1nc(O)c2ccncc2n1", "note": "[Example 2, 2-ethoxypyrido[3,4-d]pyrimidin-4-ol]", "values": [
      {"measurement": "pIC50", "result": "6.00 to 7.00"}
    ]},
    {"smiles": "Oc1nc(OCCOCC(F)(F)F)nc2cnccc12", "note": "[Example 23, 2-[2-(2,2,2-trifluoroethoxy)ethoxy]pyrido[3,4-d]pyrimidin-4-ol]", "values": [
      {"measurement": "pIC50", "result": "6.00 to 7.00"}
    ]},
    {"smiles": "CC(C)(O)CCOc1nc(O)c2ccncc2n1", "note": "[Example 24, 2-(3-hydroxy-3-methylbutoxy)pyrido[3,4-d]pyrimidin-4-ol]", "values": [
      {"measurement": "pIC50", "result": "6.00 to 7.00"}
    ]},
    {"smiles": "CC(CO)COc1nc(O)c2ccncc2n1", "note": "(stereo not drawn) [Example 25, 2-(3-hydroxy-2-methylpropoxy)pyrido[3,4-d]pyrimidin-4-ol]", "values": [
      {"measurement": "pIC50", "result": "6.00 to 7.00"}
    ]},
    {"smiles": "Oc1nc(OCC2CCCO2)nc2cnccc12", "note": "(stereo not drawn) [Example 26, 2-(oxolan-2-ylmethoxy)pyrido[3,4-d]pyrimidin-4-ol]", "values": [
      {"measurement": "pIC50", "result": "6.00 to 7.00"}
    ]},
    {"smiles": "Oc1nc(OCC2CCOC2)nc2cnccc12", "note": "(stereo not drawn) [Example 27, 2-(oxolan-3-ylmethoxy)pyrido[3,4-d]pyrimidin-4-ol]", "values": [
      {"measurement": "pIC50", "result": "6.00 to 7.00"}
    ]},
    {"smiles": "CC(=O)N(C)CCOc1nc(O)c2ccncc2n1", "note": "[Example 28, N-[2-(4-hydroxypyrido[3,4-d]pyrimidin-2-yl)oxyethyl]-N-methylacetamide]", "values": [
      {"measurement": "pIC50", "result": "6.00 to 7.00"}
    ]},
    {"smiles": "CC(C)OCCOc1nc(O)c2ccncc2n1", "note": "[Example 29, 2-(2-propan-2-yloxyethoxy)pyrido[3,4-d]pyrimidin-4-ol]", "values": [
      {"measurement": "pIC50", "result": "6.00 to 7.00"}
    ]},
    {"smiles": "Oc1nc(OCCOCc2ccccc2)nc2cnccc12", "note": "[Example 30, 2-(2-phenylmethoxyethoxy)pyrido[3,4-d]pyrimidin-4-ol]", "values": [
      {"measurement": "pIC50", "result": "6.00 to 7.00"}
    ]},
    {"smiles": "O=C(NCCOc1nc(O)c2ccncc2n1)c1ccccc1", "note": "[Example 31, N-[2-(4-hydroxypyrido[3,4-d]pyrimidin-2-yl)oxyethyl]benzamide]", "values": [
      {"measurement": "pIC50", "result": "6.00 to 7.00"}
    ]},
    {"smiles": "N#Cc1cccc(COc2nc(O)c3ccncc3n2)c1", "note": "[Example 32, 3-[(4-hydroxypyrido[3,4-d]pyrimidin-2-yl)oxymethyl]benzonitrile]", "values": [
      {"measurement": "pIC50", "result": "6.00 to 7.00"}
    ]},
    {"smiles": "Cn1ccc(COc2nc(O)c3ccncc3n2)n1", "note": "[Example 33, 2-[(1-methylpyrazol-3-yl)methoxy]pyrido[3,4-d]pyrimidin-4-ol]", "values": [
      {"measurement": "pIC50", "result": "≥ 7.00"}
    ]},
    {"smiles": "Oc1nc(Oc2ccccc2)nc2cnccc12", "note": "[Example 34, 2-phenoxypyrido[3,4-d]pyrimidin-4-ol]", "values": [
      {"measurement": "pIC50", "result": "6.00 to 7.00"}
    ]},
    {"smiles": "Oc1nc(OCc2ccccc2C(F)(F)F)nc2cnccc12", "note": "[Example 177, 2-{[2-(trifluoromethyl)phenyl]methoxy}pyrido[3,4-d]pyrimidin-4-ol]", "values": [
      {"measurement": "pIC50", "result": "≥ 7.00"}
    ]},
    {"smiles": "Oc1nc(OCc2ccccc2F)nc2cnccc12", "note": "[Example 178, 2-[(2-fluorophenyl)methoxy]pyrido[3,4-d]pyrimidin-4-ol]", "values": [
      {"measurement": "pIC50", "result": "≥ 7.00"}
    ]},
    {"smiles": "Oc1nc(OCc2cccc(F)c2)nc2cnccc12", "note": "[Example 179, 2-[(3-fluorophenyl)methoxy]pyrido[3,4-d]pyrimidin-4-ol]", "values": [
      {"measurement": "pIC50", "result": "≥ 7.00"}
    ]},
    {"smiles": "Oc1nc(OCc2ccc(F)cc2)nc2cnccc12", "note": "[Example 180, 2-[(4-fluorophenyl)methoxy]pyrido[3,4-d]pyrimidin-4-ol]", "values": [
      {"measurement": "pIC50", "result": "≥ 7.00"}
    ]},
    {"smiles": "Oc1nc(OCc2cccc(F)c2F)nc2cnccc12", "note": "[Example 181, 2-[(2,3-difluorophenyl)methoxy]pyrido[3,4-d]pyrimidin-4-ol]", "values": [
      {"measurement": "pIC50", "result": "≥ 7.00"}
    ]},
    {"smiles": "Oc1nc(OCc2cc(F)ccc2F)nc2cnccc12", "note": "[Example 182, 2-[(2,5-difluorophenyl)methoxy]pyrido[3,4-d]pyrimidin-4-ol]", "values": [
      {"measurement": "pIC50", "result": "≥ 7.00"}
    ]},
    {"smiles": "Oc1nc(OCc2c(F)cccc2F)nc2cnccc12", "note": "[Example 183, 2-[(2,6-difluorophenyl)methoxy]pyrido[3,4-d]pyrimidin-4-ol]", "values": [
      {"measurement": "pIC50", "result": "6.00 to 7.00"}
    ]},
    {"smiles": "Oc1nc(OCc2cccc3ccccc23)nc2cnccc12", "note": "[Example 184, 2-(naphthalen-1-ylmethoxy)pyrido[3,4-d]pyrimidin-4-ol]", "values": [
      {"measurement": "pIC50", "result": "6.00 to 7.00"}
    ]},
    {"smiles": "Oc1nc(OCc2ccccc2-c2ccccc2)nc2cnccc12", "note": "[Example 185, 2-[(2-phenylphenyl)methoxy]pyrido[3,4-d]pyrimidin-4-ol]", "values": [
      {"measurement": "pIC50", "result": "6.00 to 7.00"}
    ]},
    {"smiles": "Oc1nc(OCc2cccc(-c3ccccc3)c2)nc2cnccc12", "note": "[Example 186, 2-[(3-phenylphenyl)methoxy]pyrido[3,4-d]pyrimidin-4-ol]", "values": [
      {"measurement": "pIC50", "result": "6.00 to 7.00"}
    ]},
    {"smiles": "Oc1nc(OCc2ccc3ccccc3c2)nc2cnccc12", "note": "[Example 187, 2-(naphthalen-2-ylmethoxy)pyrido[3,4-d]pyrimidin-4-ol]", "values": [
      {"measurement": "pIC50", "result": "5.00 to 6.00"}
    ]},
    {"smiles": "Oc1nc(OCC2CCCc3ccccc32)nc2cnccc12", "note": "(stereo not drawn) [Example 188, 2-(1,2,3,4-tetrahydronaphthalen-1-ylmethoxy)pyrido[3,4-d]pyrimidin-4-ol]", "values": [
      {"measurement": "pIC50", "result": "≥ 7.00"}
    ]},
    {"smiles": "Oc1nc(OC2Cc3ccccc3C2)nc2cnccc12", "note": "[Example 189, 2-(2,3-dihydro-1H-inden-2-yloxy)pyrido[3,4-d]pyrimidin-4-ol]", "values": [
      {"measurement": "pIC50", "result": "≥ 7.00"}
    ]},
    {"smiles": "Oc1nc(OCC2CCc3ccccc32)nc2cnccc12", "note": "(stereo not drawn) [Example 190, 2-(2,3-dihydro-1H-inden-1-ylmethoxy)pyrido[3,4-d]pyrimidin-4-ol]", "values": [
      {"measurement": "pIC50", "result": "≥ 7.00"}
    ]},
    {"smiles": "Oc1nc(OCC2CCc3ccccc3C2)nc2cnccc12", "note": "(stereo not drawn) [Example 191, 2-(1,2,3,4-tetrahydronaphthalen-2-ylmethoxy)pyrido[3,4-d]pyrimidin-4-ol]", "values": [
      {"measurement": "pIC50", "result": "≥ 7.00"}
    ]},
    {"smiles": "Oc1nc(OC2CCc3ccccc32)nc2cnccc12", "note": "(stereo not drawn) [Example 192, 2-(2,3-dihydro-1H-inden-1-yloxy)pyrido[3,4-d]pyrimidin-4-ol]", "values": [
      {"measurement": "pIC50", "result": "5.00 to 6.00"}
    ]},
    {"smiles": "Oc1nc(OCc2coc3ccccc23)nc2cnccc12", "note": "[Example 193, 2-(1-benzofuran-3-ylmethoxy)pyrido[3,4-d]pyrimidin-4-ol]", "values": [
      {"measurement": "pIC50", "result": "≥ 7.00"}
    ]},
    {"smiles": "Oc1nc(OCC2COc3ccccc32)nc2cnccc12", "note": "(stereo not drawn) [Example 194, 2-(2,3-dihydro-1-benzofuran-3-ylmethoxy)pyrido[3,4-d]pyrimidin-4-ol]", "values": [
      {"measurement": "pIC50", "result": "5.00 to 6.00"}
    ]},
    {"smiles": "Oc1nc(OCC2CCOc3ccccc32)nc2cnccc12", "note": "(stereo not drawn) [Example 195, 2-(3,4-dihydro-2H-1-benzopyran-4-ylmethoxy)pyrido[3,4-d]pyrimidin-4-ol]", "values": [
      {"measurement": "pIC50", "result": "≥ 7.00"}
    ]},
    {"smiles": "Oc1nc(OC2CCCc3ccccc32)nc2cnccc12", "note": "(stereo not drawn) [Example 196, 2-(1,2,3,4-tetrahydronaphthalen-1-yloxy)pyrido[3,4-d]pyrimidin-4-ol]", "values": [
      {"measurement": "pIC50", "result": "5.00 to 6.00"}
    ]},
    {"smiles": "Oc1nc(OC2CCOc3ccccc32)nc2cnccc12", "note": "(stereo not drawn) [Example 197, 2-(3,4-dihydro-2H-1-benzopyran-4-yloxy)pyrido[3,4-d]pyrimidin-4-ol]", "values": [
      {"measurement": "pIC50", "result": "≥ 7.00"}
    ]},
    {"smiles": "Cn1cnc(-c2nccc3c(=O)[nH]cnc23)c1", "note": "[Example 198, 8-(1-methylimidazol-4-yl)-3H-pyrido[3,4-d]pyrimidin-4-one]", "values": [
      {"measurement": "pIC50", "result": "6.00 to 7.00"}
    ]}
  ]
}
